Source: patent publication US20240209028A1, “CNP COMPOUNDS” (priority 2022, published 2024)
Starred links: 1 amine or outer side, 2 acyl side, 3 side chain; linkers in the order of their positions; H or OH if unused. Positions of bridges follow the written chain, without caps; N, C: chain ends. Residues, ends and D or L forms follow the SMILES beside them. *: point of attachment. C18 diacid = O=C(O)CCCCCCCCCCCCCCCCC(=O)*; γGlu = O=C(O)[C@H](CCC(=O)[*:2])N[*:1]; AEEA = NCCOCCOCC(=O)O

Each compound was assayed against T1, human natriuretic peptide receptor 2 (hNPR2) (Homo sapiens, UniProt P20594) (assay: In vitro hNPR2 activity assay (cGMP GloSensor reporter, HEK293)). Settings: potency relative to CNP22 (0065).
T1 construct: expressed in transfected cells; host or cells: HEK293 (ATCC CRL-1573), clone 35, co-transfected with pGloSensor-42F
T1 sequence (P20594 23-1047): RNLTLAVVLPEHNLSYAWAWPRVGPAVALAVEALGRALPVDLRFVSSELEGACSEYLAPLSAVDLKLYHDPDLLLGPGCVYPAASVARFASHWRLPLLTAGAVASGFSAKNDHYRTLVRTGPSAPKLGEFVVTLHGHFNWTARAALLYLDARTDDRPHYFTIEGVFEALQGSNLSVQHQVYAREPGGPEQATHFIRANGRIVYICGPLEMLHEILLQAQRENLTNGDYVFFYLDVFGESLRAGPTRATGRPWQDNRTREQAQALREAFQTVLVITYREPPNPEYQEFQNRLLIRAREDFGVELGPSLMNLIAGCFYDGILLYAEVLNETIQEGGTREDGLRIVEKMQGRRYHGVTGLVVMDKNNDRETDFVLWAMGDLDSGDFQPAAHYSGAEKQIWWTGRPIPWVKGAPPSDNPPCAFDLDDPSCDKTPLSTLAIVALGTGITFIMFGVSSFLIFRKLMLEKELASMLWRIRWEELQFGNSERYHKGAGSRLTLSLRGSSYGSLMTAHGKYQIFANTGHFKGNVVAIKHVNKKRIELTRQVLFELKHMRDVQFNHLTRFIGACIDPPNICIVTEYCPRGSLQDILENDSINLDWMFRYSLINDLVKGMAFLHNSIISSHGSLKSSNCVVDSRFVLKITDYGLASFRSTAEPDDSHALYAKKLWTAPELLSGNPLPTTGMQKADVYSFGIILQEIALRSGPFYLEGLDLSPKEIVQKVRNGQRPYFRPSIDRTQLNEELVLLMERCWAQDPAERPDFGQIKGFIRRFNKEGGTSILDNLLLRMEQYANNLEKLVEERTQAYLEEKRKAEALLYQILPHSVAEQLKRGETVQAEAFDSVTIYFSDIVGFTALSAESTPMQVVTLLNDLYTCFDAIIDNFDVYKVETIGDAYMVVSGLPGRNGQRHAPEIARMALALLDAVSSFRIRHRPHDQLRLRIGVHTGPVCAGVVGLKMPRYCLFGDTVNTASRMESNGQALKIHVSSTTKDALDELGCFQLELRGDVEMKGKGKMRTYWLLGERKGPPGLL
Type: cell-based
Procedure, shortened: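 Potency is the EC50 from a four-parameter logistic fit, also expressed relative to the in-plate CNP22 control (×100), with at least two replicates. Compounds (ten concentrations, […], HSA-free diluent with 1% OVA, 0.01% Tween20) were incubated 30 min at 37 °C on HEK293 cells co-expressing hNPR2 and a GloSensor cGMP luciferase. Luminescence detected with Bright-Glo.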

Compared with `CC[C@H](C)[C@@H]1NC(=O)[C@H](CCCNC(=N)N)NC(=O)[C@H](CC(=O)O)NC(=O)[C@H](CC(C)C)NC(=O)[C@@H]2CCCN2C(=O)[C@H](CC(C)C)NC(=O)CNC(=O)[C@H](Cc2ccccc2)NC(=O)[C@@H](NC(=O)CNC(=O)[C@H](CO)NC(=O)[C@H](CO)NC(=O)[C@@H](NC(=O)CNC(=O)[C@@H](NC(=O)[C@H](CCCCN)NC(=O)[C@H](CCC(N)=O)NC(=O)[C@H](C)NC(=O)CNC(=O)[C@H](Cc2c[nH]cn2)NC(=O)[C@H](CCC(=O)O)NC(=O)[C@H](CCCCN)NC(=O)[C@H](CCCNC(=N)N)NC(=O)[C@H](C)NC(=O)COCCOCCNC(=O)COCCOCCNC(=O)CC[C@H](NC(=O)CCCCCCCCCCCCCCCCC(=O)O)C(=O)O)[C@@H](C)O)C(C)C)CSSC[C@@H](C(=O)O)NC(=O)CNC(=O)[C@H](CC(C)C)NC(=O)CNC(=O)[C@H](CO)NC(=O)[C@H](CC(C)C)NC(=O)[C@H](CO)NC(=O)CNC1=O` [compound 1359] ({C18 diacid-γGlu-AEEA-AEEA}-ARKEHGAQKTGVSSGCFGLPLDRIGSLSGLGC-OH; disulfide 16-32; C-terminus assumed), `CC[C@H](C)[C@@H]1NC(=O)[C@H](CCCNC(=N)N)NC(=O)[C@H](CC(=O)O)NC(=O)[C@H](CC(C)C)NC(=O)[C@@H]2CCCN2C(=O)[C@H](CC(C)C)NC(=O)CNC(=O)[C@H](Cc2ccccc2)NC(=O)[C@@H](NC(=O)CNC(=O)[C@H](CO)NC(=O)[C@H](CO)NC(=O)[C@@H](NC(=O)CNC(=O)[C@@H](NC(=O)[C@H](Cc2c[nH]cn2)NC(=O)[C@H](CCC(N)=O)NC(=O)[C@H](C)NC(=O)CNC(=O)[C@H](Cc2c[nH]cn2)NC(=O)[C@H](CCC(=O)O)NC(=O)[C@H](CCCCN)NC(=O)[C@H](CCCNC(=N)N)NC(=O)[C@H](C)NC(=O)COCCOCCNC(=O)COCCOCCNC(=O)CC[C@H](NC(=O)CCCCCCCCCCCCCCCCC(=O)O)C(=O)O)[C@@H](C)O)C(C)C)CSSC[C@@H](C(=O)O)NC(=O)CNC(=O)[C@H](CC(C)C)NC(=O)CNC(=O)[C@H](CO)NC(=O)[C@H](CC(C)C)NC(=O)[C@H](CO)NC(=O)CNC1=O` [compound 1360] ({C18 diacid-γGlu-AEEA-AEEA}-ARKEHGAQHTGVSSGCFGLPLDRIGSLSGLGC-OH; disulfide 16-32) is lower in “hNPR2 0% HSA. [EC50% rel CNP]” value: 28.2% for the first, 15.1% for the second.

Going from `CC[C@H](C)[C@@H]1NC(=O)[C@H](CCCNC(=N)N)NC(=O)[C@H](CC(=O)O)NC(=O)[C@H](CC(C)C)NC(=O)[C@@H]2CCCN2C(=O)[C@H](CC(C)C)NC(=O)CNC(=O)[C@H](Cc2ccccc2)NC(=O)[C@@H](NC(=O)CNC(=O)[C@H](CO)NC(=O)[C@H](CO)NC(=O)[C@H](CC(C)C)NC(=O)CNC(=O)[C@H](CCCCN)NC(=O)[C@H](CCCCN)NC(=O)[C@H](CCC(N)=O)NC(=O)[C@H](C)NC(=O)CNC(=O)[C@H](CCC(=O)O)NC(=O)[C@H](Cc2ccc(O)cc2)NC(=O)[C@H](CO)NC(=O)[C@H](CCCNC(=N)N)NC(=O)[C@H](C)NC(=O)[C@H](CCC(=O)O)NC(=O)[C@@H]2CCCN2C(=O)[C@H](Cc2c[nH]cn2)NC(=O)[C@H](CCC(=O)O)NC(=O)[C@H](CCC(N)=O)NC(=O)COCCOCCNC(=O)COCCOCCNC(=O)CC[C@H](NC(=O)CCCCCCCCCCCCCCCCC(=O)O)C(=O)O)CSSC[C@@H](C(=O)O)NC(=O)CNC(=O)[C@H](CC(C)C)NC(=O)CNC(=O)[C@H](CO)NC(=O)[C@H](CC(C)C)NC(=O)[C@H](CO)NC(=O)CNC1=O` [compound 1380] ({C18 diacid-γGlu-AEEA-AEEA}-QEHPEARSYEGAQKKGLSSGCFGLPLDRIGSLSGLGC-OH; disulfide 21-37; C-terminus assumed) to `CC[C@H](C)[C@@H]1NC(=O)[C@H](CCCNC(=N)N)NC(=O)[C@H](CC(=O)O)NC(=O)[C@H](CC(C)C)NC(=O)[C@@H]2CCCN2C(=O)[C@H](CC(C)C)NC(=O)CNC(=O)[C@H](Cc2ccccc2)NC(=O)[C@@H](NC(=O)CNC(=O)[C@H](CCC(N)=O)NC(=O)[C@H](CO)NC(=O)[C@H](CO)NC(=O)CNC(=O)[C@H](Cc2c[nH]cn2)NC(=O)[C@H](CCCCN)NC(=O)[C@H](CCC(N)=O)NC(=O)[C@H](C)NC(=O)CNC(=O)[C@H](Cc2c[nH]cn2)NC(=O)[C@H](Cc2ccc(O)cc2)NC(=O)[C@H](CCCCN)NC(=O)[C@H](Cc2c[nH]cn2)NC(=O)[C@H](C)NC(=O)[C@H](CCC(N)=O)NC(=O)[C@@H]2CCCN2C(=O)[C@H](Cc2c[nH]cn2)NC(=O)[C@H](CCC(=O)O)NC(=O)[C@H](CCC(N)=O)NC(=O)COCCOCCNC(=O)COCCOCCNC(=O)CC[C@H](NC(=O)CC[C@H](NC(=O)CCCCCCCCCCCCCCCCC(=O)O)C(=O)O)C(=O)O)CSSC[C@@H](C(=O)O)NC(=O)CNC(=O)[C@H](CC(C)C)NC(=O)CNC(=O)[C@H](CO)NC(=O)[C@H](CC(C)C)NC(=O)[C@H](CO)NC(=O)CNC1=O` [compound 1383] ({C18 diacid-γGlu-γGlu-AEEA-AEEA}-QEHPQAHKYHGAQKHGSSQGCFGLPLDRIGSLSGLGC-OH; disulfide 21-37), the “hNPR2 0% HSA. [EC50% rel CNP]” value rises from 15.7% to 43.1%.

First: CC[C@H](C)[C@@H]1NC(=O)[C@H](CCCNC(=N)N)NC(=O)[C@H](CC(=O)O)NC(=O)[C@H](CC(C)C)NC(=O)[C@@H]2CCCN2C(=O)[C@H](CC(C)C)NC(=O)CNC(=O)[C@H](Cc2ccccc2)NC(=O)[C@@H](NC(=O)CNC(=O)[C@H](CCCCN)NC(=O)[C@H](CO)NC(=O)[C@H](CC(C)C)NC(=O)CNC(=O)[C@H](CCCCN)NC(=O)[C@H](CCCCN)NC(=O)[C@H](CCC(N)=O)NC(=O)[C@H](C)NC(=O)CNC(=O)[C@H](CCC(=O)O)NC(=O)[C@H](Cc2ccc(O)cc2)NC(=O)[C@H](CCCCN)NC(=O)[C@H](CCCNC(=N)N)NC(=O)[C@H](C)NC(=O)CC[C@H](NC(=O)CC[C@H](NC(=O)CC[C@H](NC(=O)CC[C@H](NC(=O)CCCCCCCCCCCCCCCCC(=O)O)C(=O)O)C(=O)O)C(=O)O)C(=O)O)CSSC[C@@H](C(=O)O)NC(=O)CNC(=O)[C@H](CC(C)C)NC(=O)CNC(=O)[C@H](CO)NC(=O)[C@H](CC(C)C)NC(=O)[C@H](CO)NC(=O)CNC1=O [compound 1385] ({C18 diacid-γGlu-γGlu-γGlu-γGlu}-ARKYEGAQKKGLSKGCFGLPLDRIGSLSGLGC-OH; disulfide 16-32)
Second: CC[C@H](C)[C@@H]1NC(=O)[C@H](CCCNC(=N)N)NC(=O)[C@H](CC(=O)O)NC(=O)[C@H](CC(C)C)NC(=O)[C@@H]2CCCN2C(=O)[C@H](CC(C)C)NC(=O)CNC(=O)[C@H](Cc2ccccc2)NC(=O)[C@@H](NC(=O)CNC(=O)[C@H](CCCCN)NC(=O)[C@H](CO)NC(=O)[C@H](CC(C)C)NC(=O)CNC(=O)[C@H](CCCCN)NC(=O)[C@H](CCCCN)NC(=O)[C@H](CCC(N)=O)NC(=O)[C@H](C)NC(=O)CNC(=O)[C@H](CCCCN)NC(=O)[C@H](Cc2ccc(O)cc2)NC(=O)CNC(=O)CNC(=O)CNC(=O)CC[C@H](NC(=O)CC[C@H](NC(=O)CC[C@H](NC(=O)CC[C@H](NC(=O)CCCCCCCCCCCCCCCCC(=O)O)C(=O)O)C(=O)O)C(=O)O)C(=O)O)CSSC[C@@H](C(=O)O)NC(=O)CNC(=O)[C@H](CC(C)C)NC(=O)CNC(=O)[C@H](CO)NC(=O)[C@H](CC(C)C)NC(=O)[C@H](CO)NC(=O)CNC1=O [compound 1388] ({C18 diacid-γGlu-γGlu-γGlu-γGlu}-GGGYKGAQKKGLSKGCFGLPLDRIGSLSGLGC-OH; disulfide 16-32)
The “hNPR2 0% HSA. [EC50% rel CNP]” value of the first is higher: 30.7% for the first, 23.5% for the second.

With `CC[C@H](C)[C@@H]1NC(=O)[C@H](CCCNC(=N)N)NC(=O)[C@H](CC(=O)O)NC(=O)[C@H](CC(C)C)NC(=O)[C@@H]2CCCN2C(=O)[C@H](CC(C)C)NC(=O)CNC(=O)[C@H](Cc2ccccc2)NC(=O)[C@@H](NC(=O)CNC(=O)[C@H](CO)NC(=O)[C@H](CO)NC(=O)[C@H](CC(C)C)NC(=O)CNC(=O)[C@H](CCCCN)NC(=O)[C@H](CCCCN)NC(=O)[C@H](CCC(N)=O)NC(=O)[C@H](C)NC(=O)CNC(=O)[C@H](CCCCN)NC(=O)[C@H](Cc2ccc(O)cc2)NC(=O)CNC(=O)CNC(=O)CNC(=O)CC[C@H](NC(=O)CC[C@H](NC(=O)CC[C@H](NC(=O)CC[C@H](NC(=O)CCCCCCCCCCCCCCCCC(=O)O)C(=O)O)C(=O)O)C(=O)O)C(=O)O)CSSC[C@@H](C(=O)O)NC(=O)CNC(=O)[C@H](CC(C)C)NC(=O)CNC(=O)[C@H](CO)NC(=O)[C@H](CC(C)C)NC(=O)[C@H](CO)NC(=O)CNC1=O` [compound 1387] ({C18 diacid-γGlu-γGlu-γGlu-γGlu}-GGGYKGAQKKGLSSGCFGLPLDRIGSLSGLGC-OH; disulfide 16-32; C-terminus assumed) the “hNPR2 0% HSA. [EC50% rel CNP]” value was 20.6%.
